Test results published in patent US12382955B2, “Peroxyformic acid compositions for membrane filtration cleaning in energy services” (priority 2016, dated 2025).

Assays:
oil and gas biofilm = experiment: Biofilm percent reductions (Example 5)
[1] = Membrane compatibility, simulated exposure soak, clean water flux and salt rejection (Example 4); settings: Koch HRX, PFA 300 ppm, 77 F
Description: The effects of PFA on reverse osmosis members which contain a polyamide structure in comparison with known control chemicals were tested. Three different membranes were tested including Koch HRX, Hydranautics CPA5 and Hydranautics ESPA2+. Membranes were soaked in duplicate, in chemistries according to Table 4.
Membranes were then conditioned in Ultrasil 110 at a pH of 11 for 90 minutes at 50° C., followed by a rinse in DI water.
Each of the chemistries, with the exception of PFA was refreshed daily. PFA was refreshed hourly. After the simulated exposure the membranes are rinsed with DI water and placed on the Flat Sheet Membrane skid (Model M20). The membranes were rinsed with DI water for 24 hours at standard UF pressure and temperature. Once 24 hours was completed the membranes were subjected to alkaline conditioning step until solution pH is 11. 15.14 grams of NaCl was added to the recirculating water (2000 ppm NaCl) and the system was allowed to continue circulating. The conductivity of each permeate tube and feed was then measured and recorded and shown as percent rejection. The percent rejection was determined by (conductivity of the feed−conductivity of the permeate)/(conductivity of the feed).

| SMILES | Biofilm percent reductions, ATP (oil and gas biofilm; 250 ppm) [%] | Biofilm percent reductions, Total biofilm (oil and gas biofilm; 250 ppm) [%] | inhibition at 250 ppm (oil and gas biofilm; read-out: Biofilm percent reductions, Viable biofilm) [%] | Water Flux (LMH) PFA 1 YR ([1]; simulated 1 year, 78 hr soak) [LMH] | Water Flux (LMH) PFA 3 YR ([1]; simulated 3 years, 234 hr soak) [LMH] | Biofilm percent reductions, ATP (oil and gas biofilm; 75 ppm active) [%] | Biofilm percent reductions, Total biofilm (oil and gas biofilm; 75 ppm active) [%] | Biofilm percent reductions, Viable biofilm (oil and gas biofilm; 75 ppm active) [%] |
| --- | --- | --- | --- | --- | --- | --- | --- | --- |
| O=CCCCC=O [Glutaraldehyde, reference compound] | 94 | 58 | 81 | – | – | – | – | – |
| O=COO [PFA, peroxyformic acid] | – | – | – | 65.40 | 75.84 | 99 | 85 | 96 |
